Here are results for 23 compounds from ChEMBL document CHEMBL1154985, “Discovery of a novel series of potent S1P1 agonists” (Bioorg Med Chem Lett, 2010).

Data set [1] is described as follows: Intrinsic clearance in rat liver microsomes at 3 uM by LC/MS-MS analysis. Format: ADME, Microsome. A general note: Liver microsomes are a subcellular fraction often used to study metabolism.
Data set [2] in a line: Solubility in PBS by nephelometry. Format: physicochemical.
Data set [3] concerns Mus musculus. In words: Reduction of lymphopenia in mouse assessed as effect on erythrocytes at 30 mg/kg, po after 4 hrs. Format: functional, organism-based. Details: dose 30 mg/kg.
The test system of data set [4] is Mus musculus. As to the kind of experiment: Reduction of S1P1-mediated lymphopenia in mouse assessed as blood lymphocyte depletion at 30 mg/kg, po after 4 hrs. Also noted: scale not given: the % may be the effect or the level left. Format: functional.
The nature of data set [5]: Apparent permeability across human Caco-2 cells by LC/MS-MS analysis. Format: ADME, cell-based. A general note: Caco-2 monolayers are a common model of the intestinal barrier.
Data set [6] is described as follows: Intrinsic clearance in human liver microsomes at 3 uM by LC/MS-MS analysis. Format: ADME, Microsome.
For data set [7], the target named is Sphingosine 1-phosphate receptor 5 (Homo sapiens, UniProt Q9H228). As to the kind of experiment: Agonist activity at S1P5 receptor expressed in CHO cells after 60 mins by [35S]-GTPgammaS binding assay. Format: functional, cell-based.
Chain of Sphingosine 1-phosphate receptor 5 (Q9H228 whole entry): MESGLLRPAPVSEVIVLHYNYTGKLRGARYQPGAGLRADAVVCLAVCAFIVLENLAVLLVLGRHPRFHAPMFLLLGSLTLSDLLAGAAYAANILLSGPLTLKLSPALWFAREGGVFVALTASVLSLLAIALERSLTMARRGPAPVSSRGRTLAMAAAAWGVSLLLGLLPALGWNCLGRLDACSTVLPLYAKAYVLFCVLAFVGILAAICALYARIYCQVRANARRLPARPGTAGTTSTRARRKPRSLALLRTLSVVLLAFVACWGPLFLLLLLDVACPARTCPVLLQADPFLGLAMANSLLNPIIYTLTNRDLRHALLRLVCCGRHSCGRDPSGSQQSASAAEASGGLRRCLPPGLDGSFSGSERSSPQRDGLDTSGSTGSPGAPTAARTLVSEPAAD
The nature of data set [8]: Lipophilicity, log P of the compound. The conditions noted are these: octanol/water. Format: physicochemical.
The target in data set [9] is T1, Sphingosine 1-phosphate receptor 1 (Homo sapiens, UniProt P21453). As to the kind of experiment: Agonist activity at S1P1 receptor expressed in human U20S cells assessed as receptor internalization by green fluorescent protein reporter gene assay. Format: functional, cell-based, U2OS.
T1 sequence (P21453 whole entry): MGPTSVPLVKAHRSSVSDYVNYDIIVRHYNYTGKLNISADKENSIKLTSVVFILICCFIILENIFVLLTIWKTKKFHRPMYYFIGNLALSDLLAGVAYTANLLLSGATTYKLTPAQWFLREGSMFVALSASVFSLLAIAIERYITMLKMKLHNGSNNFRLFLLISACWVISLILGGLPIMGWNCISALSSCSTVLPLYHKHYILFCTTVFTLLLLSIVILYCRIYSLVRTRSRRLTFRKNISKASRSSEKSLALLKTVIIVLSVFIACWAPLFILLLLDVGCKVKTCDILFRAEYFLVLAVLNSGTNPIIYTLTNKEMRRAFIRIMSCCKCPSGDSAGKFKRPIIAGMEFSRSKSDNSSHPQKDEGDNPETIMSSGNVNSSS
Data set [10] deals with Mus musculus. In words: Reduction of lymphopenia in mouse assessed as effect on platelets at 30 mg/kg, po after 4 hrs. Also noted: dose 30 mg/kg. Format: functional, organism-based.
Data set [11] concerns the target Sphingosine 1-phosphate receptor 3 (Homo sapiens, UniProt Q99500). As to the kind of experiment: Agonist activity at S1P3 receptor expressed in CHO cells after 60 mins by [35S]-GTPgammaS binding assay. Format: functional, cell-based.
A short description of data set [12]: Clearance in mouse. Format: ADME, organism-based. The conditions noted are these: in vivo.
Data set [13] deals with T1, Sphingosine 1-phosphate receptor 1. As to the kind of experiment: Agonist activity at S1P1 receptor expressed in CHO cells after 60 mins by [35S]-GTPgammaS binding assay. Format: functional, cell-based. (In general: Binding of GTPγS marks nucleotide exchange on a G protein.)
Data set [14] in a line: Lipophilicity, log D at pH 7.4. The conditions noted are these: buffer. Format: physicochemical.

Values after ≈ are worked out from the molar mass of the structure shown. Active and inactive are the calls of the source. The calls are words filed in the database; no cut-off is given here.

Chain of Sphingosine 1-phosphate receptor 3 (Q99500 whole entry): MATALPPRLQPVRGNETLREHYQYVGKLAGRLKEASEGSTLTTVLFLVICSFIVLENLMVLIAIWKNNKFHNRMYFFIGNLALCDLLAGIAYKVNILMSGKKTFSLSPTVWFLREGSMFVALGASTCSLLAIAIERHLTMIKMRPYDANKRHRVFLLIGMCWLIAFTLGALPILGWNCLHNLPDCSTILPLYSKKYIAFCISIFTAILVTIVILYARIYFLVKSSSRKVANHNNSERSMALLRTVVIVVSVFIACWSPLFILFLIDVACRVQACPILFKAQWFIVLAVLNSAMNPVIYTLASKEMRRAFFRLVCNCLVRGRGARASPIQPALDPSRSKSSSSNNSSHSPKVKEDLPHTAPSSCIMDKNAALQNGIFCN

Broadly, the microsomal CLint is the capacity of the preparation to metabolise the compound, expressed as a volume cleared per time. As usually defined, the kinetic solubility is solubility judged after dilution from a stock solution rather than from solid. By Papp is commonly meant a coefficient for how fast a substance crosses the barrier. A word on the EC50: it is the concentration needed to bring the measured effect to its halfway point. The term logP denotes the decadic logarithm of the partition coefficient of the neutral form, usually between octanol and water. Take `CCCN(CC1CC1)c1cc(C(=O)Nc2ccc3[nH]ncc3c2)ncn1`: the microsomal CLint at 3 µM in data set [1] turned out to be 57 µL/min/mg; in [6], 17 µL/min/mg. In addition, the kinetic solubility in data set [2] came to 0.011 mg/mL (≈ 31.4 µM). Moreover, the outcome with Mus musculus [3] and with Mus musculus [10] was inactive. Also, the Activity with Mus musculus [4] came to 72%. The apparent permeability (Papp) in data set [5] was 85 nm/s. The results for the concentration for a half-maximal effect (EC50) in data set [7] and in data set [9] were 0.142 µM and 0.012 µM, respectively. In [8], this compound had a logP of 4.6.
`Cc1cc(S(N)(=O)=O)ccc1NC(=O)c1cc(NC2CCCCC2)ncn1`: the EC50 in data set [11] is above 30 µM. The results for the microsomal CLint at 3 µM in [1] and in data set [6] were 15 µL/min/mg and 43 µL/min/mg, respectively. The solubility (kinetic) in [2] came out at 0.005 mg/mL (≈ 12.8 µM). Also, the apparent permeability (Papp) in data set [5] worked out at 125 nm/s. In [8], the logP is 3.6.
Broadly, the clearance is the volume of plasma or blood freed of the substance per unit of time. In the case of `Cc1cc(O)ccc1NC(=O)c1cc(NC2CCCCC2)ncn1`, the values for the EC50 in data set [11] and in data set [7] were above 30 µM and 0.258 µM, respectively. The microsomal CLint at 3 µM in data set [1] is 18 µL/min/mg; in data set [6], 2 µL/min/mg. In data set [2], the solubility (kinetic) was above 0.032 mg/mL. In data set [5], the apparent permeability coefficient (Papp) worked out at 218 nm/s. This compound also displayed a logP in data set [8] of 4.1. The compound further gave a clearance in [12] of 4.85 L/h/kg.
As to `O=C(Nc1ccc(O)cc1)c1cc(NC2CCCCC2)ncn1`, the EC50 in data set [11] was above 30 µM.
`CN(c1ccccc1)c1cc(C(=O)Nc2ccc(O)cc2)ncn1` gave a half-maximal effective concentration (EC50) in data set [13] above 20 µM.
On the same count and under the same terms, the same measure for `CNS(=O)(=O)c1ccc(NC(=O)c2cc(N(CC3CC3)C3CCCCC3)ncn2)c(C)c1`: 0.006 µM.
Consider `O=C(O)CCNCc1ccc(NC(=O)c2cc(N(CC3CC3)C3CCCCC3)ncn2)cc1`, for which the half-maximal effective concentration (EC50) in data set [11] amounted to 1.09 µM; in data set [7], 0.0063 µM. In addition, the intrinsic clearance (microsomal CLint) at 3 µM in [1] and in [6] was below 10 µL/min/mg throughout. The same compound displayed a kinetic solubility in data set [2] above 0.045 mg/mL. Further, in data set [5], the Papp is 8 nm/s.
As to `Cc1cc(S(=O)(=O)NCCC(=O)O)ccc1NC(=O)c1cc(N(CC2CC2)C2CCCCC2)ncn1`, the microsomal CLint at 3 µM in data set [1] and in [6] was 25 µL/min/mg each time. In addition, the kinetic solubility in [2] is above 0.051 mg/mL. Moreover, the Papp in data set [5] came out at 20 nm/s. In data set [7], the response was half-maximal at 0.114 µM (EC50).
`O=C(Nc1ccc2[nH]ccc2c1)c1cc(NC2CCCCC2)ncn1` had an EC50 in [13] of 12.1 µM.
Take `Cc1cc2[nH]ncc2cc1NC(=O)c1cc(N(CC2CC2)C2CCCCC2)ncn1`: the microsomal CLint at 3 µM in data set [1] was 26 µL/min/mg; in [6], below 10 µL/min/mg. In [2], this compound displayed a kinetic solubility of 0.005 mg/mL (≈ 12.4 µM). The apparent permeability coefficient (Papp) in data set [5] amounted to 1 nm/s. This compound displayed a lipophilicity (logP) in data set [8] of 6.1.
As usually defined, the logD is lipophilicity at a set pH, counting ionised and neutral species. `Cc1cc(CN2CC(C(=O)O)C2)ccc1NC(=O)c1cc(N(CC2CC2)C2CCCCC2)ncn1`: the EC50 in data set [11] stood at 0.236 µM; in [7] it was 0.0006 µM; in [13] it was 0.003 µM; in [9] it was 0.003 µM. For the same compound, the microsomal CLint at 3 µM in data set [1] and in data set [6] was below 10 µL/min/mg each time. The solubility (kinetic) in data set [2] came out at 0.022 mg/mL (≈ 46.1 µM). Also, the apparent permeability (Papp) in data set [5] stood at 24 nm/s. This compound showed a logD in data set [14] above 2.7.
As for `Cc1cc(O)ccc1NC(=O)c1cc(N(CC2CC2)C2CCCCC2)ncn1`, the values for the EC50 in [11] and in data set [7] were above 30 µM and 0.191 µM, respectively. The intrinsic metabolic clearance (microsomal CLint) at 3 µM in [1] amounted to 52 µL/min/mg; in [6], 22 µL/min/mg. This compound also yielded a kinetic solubility in [2] of 0.008 mg/mL (≈ 21 µM). Besides, in data set [8], the logP amounted to 7.4.
Turning to `O=C(Nc1ccc(F)cc1F)c1cc(NC2CCCCC2)ncn1`, the half-maximal effective concentration (EC50) in [13] is above 20 µM.
In turn, `O=C(Nc1ccc(CO)cc1)c1cc(NC2CCCCC2)ncn1` displayed an EC50 in [13] above 20 µM.
Regarding `NS(=O)(=O)c1ccc(NC(=O)c2cc(NC3CCCCC3)ncn2)cc1`, the clearance in [12] is 0.3 L/h/kg.
In the case of `CC(=O)Nc1ccc(NC(=O)c2cc(NC3CCCCC3)ncn2)cc1`, the EC50 in [13] is above 20 µM.
Still for that read-out and setting: with `COc1ccc(NC(=O)c2cc(NC3CCCCC3)ncn2)cc1` the figure was above 20 µM.
Still for that read-out and setting: with `CN(c1cc(C(=O)Nc2ccc3[nH]nnc3c2)ncn1)C1CCCCC1` the figure was 7.3 µM; with `Cc1cc(O)ccc1NC(=O)c1cc(NC(C)(C)C)ncn1`, above 20 µM.
Compound `CCN(c1cc(C(=O)Nc2ccc(O)cc2C)ncn1)C1CCCCC1` had an EC50 in data set [13] of 0.405 µM.
The same measure, in the same setting: the same measure for `Cc1cc(O)ccc1NC(=O)c1cc(NC2CC2)ncn1`: above 20 µM.
As to `Cc1cc(S(N)(=O)=O)ccc1NC(=O)c1cc(N(CC2CC2)C2CCCCC2)ncn1`, the EC50 was above 30 µM in [11], 0.096 µM in data set [7] and 0.0016 µM in data set [13]. Further, the results for the intrinsic metabolic clearance (microsomal CLint) at 3 µM in [1] and in [6] were 14 µL/min/mg and 130 µL/min/mg, respectively. In data set [2], the solubility (kinetic) was 0.001 mg/mL (≈ 2.25 µM). Further, the log partition coefficient (logP) in data set [8] turned out to be 5.7.
In the case of `CCCN(CCC)c1cc(C(=O)Nc2ccc(O)cc2)ncn1`, the microsomal CLint at 3 µM in data set [1] stood at 7 µL/min/mg; in data set [6], 4 µL/min/mg. The solubility (kinetic) in [2] was 0.016 mg/mL (≈ 50.9 µM). For the same compound, the Papp in [5] turned out to be 214 nm/s. The compound further returned an EC50 in [13] of 0.375 µM.
